Assay [1] addresses T1, ceQORH (Arabidopsis thaliana, UniProt Q9SV68).
T1 construct: mostly monomer, expected mass 34 kDa
T1 sequence (Q9SV68 1-329): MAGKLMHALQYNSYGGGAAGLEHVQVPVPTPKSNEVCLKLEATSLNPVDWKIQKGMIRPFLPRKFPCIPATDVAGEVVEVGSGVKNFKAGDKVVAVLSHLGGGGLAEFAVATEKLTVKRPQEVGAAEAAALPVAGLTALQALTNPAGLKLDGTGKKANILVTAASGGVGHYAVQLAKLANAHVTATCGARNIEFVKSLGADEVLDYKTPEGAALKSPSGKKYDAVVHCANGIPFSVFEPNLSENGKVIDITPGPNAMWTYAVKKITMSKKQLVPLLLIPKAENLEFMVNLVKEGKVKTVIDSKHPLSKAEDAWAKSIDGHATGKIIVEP
The assay can be described thus: spectrophotometric NBT reduction to formazan, […] nm. The class given is biochemical. The settings on record: 100 µM NBT, 100 µM NADPH, soybean lipids, 10 mM Tris-HCl pH 8.0, artificial electron acceptor.

The target of assay [2] is T2, AtAATP1 (Arabidopsis thaliana, UniProt Q39002).
T2 construct: gene AATP1; N-terminal attB-encoded extension, C-terminal Strep-tag II; in intact Lactococcus lactis NZ9000 cells
T2 sequence (Q39002 81-624): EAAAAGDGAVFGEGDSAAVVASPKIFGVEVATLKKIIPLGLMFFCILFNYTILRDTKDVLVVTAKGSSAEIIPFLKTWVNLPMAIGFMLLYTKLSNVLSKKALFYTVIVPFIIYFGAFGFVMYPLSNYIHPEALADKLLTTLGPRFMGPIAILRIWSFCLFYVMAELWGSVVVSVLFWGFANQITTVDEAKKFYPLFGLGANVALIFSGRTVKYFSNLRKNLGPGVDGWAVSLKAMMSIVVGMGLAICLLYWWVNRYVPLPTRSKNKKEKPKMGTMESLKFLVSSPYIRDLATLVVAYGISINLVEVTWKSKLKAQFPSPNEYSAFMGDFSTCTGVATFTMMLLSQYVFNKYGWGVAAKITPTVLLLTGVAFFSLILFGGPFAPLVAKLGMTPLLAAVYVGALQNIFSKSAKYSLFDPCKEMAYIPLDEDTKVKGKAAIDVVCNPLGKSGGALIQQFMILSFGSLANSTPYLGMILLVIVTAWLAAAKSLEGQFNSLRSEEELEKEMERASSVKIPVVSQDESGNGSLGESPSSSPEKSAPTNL
As to the kind of experiment: radioactive ATP uptake into intact L. lactis cells, filtration. Format: cell-based. The settings on record: 50 µM [α-32P]ATP, 50 mM potassium phosphate pH 7.0, 25 °C; empty-vector control; labelled compound.

Turning to `NC(=O)C1=CN([C@@H]2O[C@H](COP(=O)(O)OP(=O)(O)OC[C@H]3O[C@@H](n4cnc5c(N)ncnc54)[C@H](OP(=O)(O)O)[C@@H]3O)[C@@H](O)[C@H]2O)C=CC1` [NADPH], the “spectrophotometric NBT reduction to formazan, 550 nm” value in assay [1] (electron donor) is given as “ceQORH protein indeed has NADPH-dependent dehydrogenase activity”.

Consider `COc1cc(-c2ccc(-[n+]3nc(-c4ccccc4)nn3-c3ccc([N+](=O)[O-])cc3)c(OC)c2)ccc1-[n+]1nc(-c2ccccc2)nn1-c1ccc([N+](=O)[O-])cc1` [NBT], for which, in assay [1], the “spectrophotometric NBT reduction to formazan, 550 nm” value was “the ceQORH protein, in combination with lipids and NADPH reduces the NBT to formazan”.

For the compound `Nc1ncnc2c1ncn2[C@@H]1O[C@H](COP(=O)(O)OP(=O)(O)OP(=O)(O)O)[C@@H](O)[C@H]1O` [[α-32P] ATP], the “radioactive ATP uptake into intact L. lactis cells, filtration” value in assay [2] was “recombinant AtAATP1 protein produced in L. lactis is able to transport ATP”.

(Values after article PMC2808337, “Lactococcus lactis, an Alternative System for Functional Expression of Peripheral and Intrinsic Arabidopsis Membrane Proteins” (PLoS ONE, 2010).)
